Source: patent US8188078B2 (Sanofi-Aventis, priority 2007, dated 2012)
pIC50: −log10 of the molar value.

How the values were obtained:
RON = RON (Homo sapiens, UniProt Q04912); assay: Test B: HTRF RON test in 96-well format; assay type: biochemical
Procedure, shortened: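 RON 5 nM pre-incubated 30 min at RT with compound (0.17 nM–10 μM final, 3% DMSO) in MOPS 10 mM pH 7, DTT, Tween 20. Reaction with biotinylated poly-(GAT) 1 μg/ml, ATP 10 μM, MgCl2 5 mM, 30 min RT. Eu-anti-pTyr/streptavidin-XL665 HTRF, 665/620 ratio gives % inhibition, IC50.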

c-MET = target: T1, c-MET (Homo sapiens, UniProt P08581); assay: Test A: HTRF Met test in 96-well format; assay type: biochemical
T1 construct: The recombinant DNA His-Tev-MET (956-1390) in pFastBac(Invitrogen); His (N, cleaved yes); Tev (TEV protease site) (N, cleaved yes); made in house; host or cells: SF21 insect cells (baculovirus, pFastBac)
T1 sequence (P08581 956-1390): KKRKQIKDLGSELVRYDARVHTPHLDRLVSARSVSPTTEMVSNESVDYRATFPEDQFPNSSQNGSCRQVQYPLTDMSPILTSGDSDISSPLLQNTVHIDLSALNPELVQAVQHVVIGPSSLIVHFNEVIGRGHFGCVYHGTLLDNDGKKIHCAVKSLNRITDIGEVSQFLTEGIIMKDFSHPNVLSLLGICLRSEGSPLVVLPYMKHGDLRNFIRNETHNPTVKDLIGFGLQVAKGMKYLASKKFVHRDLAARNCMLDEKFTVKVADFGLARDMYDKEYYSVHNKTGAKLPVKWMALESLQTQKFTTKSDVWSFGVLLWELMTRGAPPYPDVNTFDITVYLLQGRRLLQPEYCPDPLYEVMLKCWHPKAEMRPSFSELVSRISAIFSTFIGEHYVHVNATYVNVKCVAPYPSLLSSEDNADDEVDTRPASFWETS
Procedure, shortened: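 The kinase was the Sf21-expressed MET cytoplasmic domain (956–1390), His tag removed, used at 5 nM with compound (0.17 nM–10 µM, 3% DMSO) in 10 mM MOPS pH 7.4. Poly-GAT 1 µg/ml, 10 µM ATP and 5 mM MgCl2 reacted 10 min at RT. After an EDTA stop, phosphotyrosine was detected by HTRF (665/620 ratio).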

RON, sequence (Q04912 25-1400): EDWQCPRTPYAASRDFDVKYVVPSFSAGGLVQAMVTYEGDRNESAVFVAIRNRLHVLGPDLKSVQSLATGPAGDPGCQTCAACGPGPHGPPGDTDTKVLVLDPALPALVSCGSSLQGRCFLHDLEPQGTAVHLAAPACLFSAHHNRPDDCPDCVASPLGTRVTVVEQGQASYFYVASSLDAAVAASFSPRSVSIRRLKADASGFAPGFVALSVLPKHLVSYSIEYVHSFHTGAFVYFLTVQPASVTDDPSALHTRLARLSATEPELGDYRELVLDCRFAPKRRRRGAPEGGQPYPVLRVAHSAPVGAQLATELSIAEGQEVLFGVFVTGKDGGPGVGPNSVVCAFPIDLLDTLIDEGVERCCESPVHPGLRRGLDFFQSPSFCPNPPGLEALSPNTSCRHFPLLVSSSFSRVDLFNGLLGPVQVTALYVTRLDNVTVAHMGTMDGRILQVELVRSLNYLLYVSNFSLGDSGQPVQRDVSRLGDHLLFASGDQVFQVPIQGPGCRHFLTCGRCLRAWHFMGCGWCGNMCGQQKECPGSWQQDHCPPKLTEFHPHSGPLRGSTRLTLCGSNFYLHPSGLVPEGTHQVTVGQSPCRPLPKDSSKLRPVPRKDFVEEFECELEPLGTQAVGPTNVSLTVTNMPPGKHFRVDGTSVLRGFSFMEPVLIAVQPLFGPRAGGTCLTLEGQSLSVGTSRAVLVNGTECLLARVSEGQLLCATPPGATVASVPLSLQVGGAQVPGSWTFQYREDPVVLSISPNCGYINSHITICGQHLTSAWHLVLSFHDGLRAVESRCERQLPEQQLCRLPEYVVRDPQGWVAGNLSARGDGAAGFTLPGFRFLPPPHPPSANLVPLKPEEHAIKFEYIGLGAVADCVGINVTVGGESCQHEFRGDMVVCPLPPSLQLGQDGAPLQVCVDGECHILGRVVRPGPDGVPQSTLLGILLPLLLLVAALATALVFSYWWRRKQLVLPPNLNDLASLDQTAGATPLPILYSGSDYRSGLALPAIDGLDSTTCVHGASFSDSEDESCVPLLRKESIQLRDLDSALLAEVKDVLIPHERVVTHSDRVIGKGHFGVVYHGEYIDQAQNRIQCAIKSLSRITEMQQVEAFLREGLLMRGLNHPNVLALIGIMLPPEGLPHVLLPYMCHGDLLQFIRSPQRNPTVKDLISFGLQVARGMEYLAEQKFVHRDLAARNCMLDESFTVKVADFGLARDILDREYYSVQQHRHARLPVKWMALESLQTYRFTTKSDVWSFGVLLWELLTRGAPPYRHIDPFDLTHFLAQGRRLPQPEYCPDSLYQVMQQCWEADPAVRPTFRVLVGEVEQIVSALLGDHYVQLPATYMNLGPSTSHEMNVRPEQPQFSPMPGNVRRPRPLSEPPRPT

Compound | pIC50 (RON) | pIC50 (c-MET)
CC(Oc1ccc2nc(NC(=O)NCc3cccnc3)sc2c1)c1c(Cl)ccc(F)c1Cl (centres unmarked) [Example 59, 1-{6-[1-(2,6-dichloro-3-fluorophenyl)ethoxy]-1,3-benzothiazol-2-yl}-3-(pyridin-3-ylmethyl)urea] | 5.00 to 6.30 | > 7.00
CC(Oc1ccc2nc(NC(=O)NCCN3CCOCC3)sc2c1)c1c(F)ccc(F)c1F (centres unmarked) [Example 60, 1-(2-morpholin-4-ylethyl)-3-{6-[1-(2,3,6-trifluorophenyl)ethoxy]-1,3-benzothiazol-2-yl}urea] | 5.00 to 6.30 | > 7.00
CC(Oc1ccc2nc(NC(=O)NCCN3CCOCC3)sc2c1)c1c(F)ccc(Cl)c1Cl (centres unmarked) [Example 61, 1-{6-[1-(2,3-dichloro-6-fluorophenyl)ethoxy]-1,3-benzothiazol-2-yl}-3-(2-morpholin-4-ylethyl)urea] | > 6.30 | > 7.00
O=C(NCCN1CCOCC1)Nc1nc2ccc(OC(c3c(Cl)cccc3Cl)C(F)(F)F)cc2s1 (centres unmarked) [Example 64, 1-{6-[1-(2,6-dichlorophenyl)-2,2,2-trifluoroethoxy]-1,3-benzothiazol-2-yl}-3-(2-morpholin-4-ylethyl)urea] | 5.00 to 6.30 | > 7.00
CC(Oc1ccc2nc(NC(=O)C3CC3)sc2c1)c1c(Cl)ccc(F)c1Cl (centres unmarked) [Example 66, N-{6-[1-(2,6-dichloro-3-fluorophenyl)ethoxy]-1,3-benzothiazol-2-yl}cyclopropanecarboxamide] | 5.00 to 6.30 | > 7.00
CCN(CC)CCCOC(=O)Nc1nc2cc(F)c(OC(C)c3c(Cl)ccc(F)c3Cl)cc2s1 (centres unmarked) [Example 70] | 5.00 to 6.30 | > 7.00
CC(Oc1ccc2nc(NC(=O)OCCN3CCOCC3)sc2c1)c1c(Cl)ccc(F)c1Cl (centres unmarked) [Example 74] | 5.00 to 6.30 | > 7.00
COCCCNC(=O)Nc1nc2cc(F)c(OC(C)c3c(Cl)ccc(F)c3Cl)cc2s1 (centres unmarked) [Example 104, 1-{6-[1-(2,6-dichloro-3-fluorophenyl)ethoxy]-5-fluoro-1,3-benzothiazol-2-yl}-3-(3-methoxypropyl)urea] | > 6.30 | > 7.00
CC(Oc1cc2sc(NC(=O)NCCCO)nc2cc1F)c1c(Cl)ccc(F)c1Cl (centres unmarked) [Example 105, 1-{6-[1-(2,6-dichloro-3-fluorophenyl)ethoxy]-5-fluoro-1,3-benzothiazol-2-yl}-3-(3-hydroxypropyl)urea] | > 6.30 | > 7.00
CC(Oc1ccc2nc(NC(=O)NCCN3CCN(C)CC3)sc2c1)c1c(F)ccc(Cl)c1Cl (centres unmarked) [Example 108, 1-{6-[1-(2,3-dichloro-6-fluorophenyl)ethoxy]-1,3-benzothiazol-2-yl}-3-[2-(4-methylpiperazin-1-yl)ethyl]urea] | > 6.30 | > 7.00
CC(Oc1ccc2nc(NC(=O)NCCC3CCCN3C)sc2c1)c1c(F)ccc(Cl)c1Cl (centres unmarked) [Example 110, 1-{6-[1-(2,3-dichloro-6-fluorophenyl)ethoxy]-1,3-benzothiazol-2-yl}-3-[2-(1-methylpyrrolidin-2-yl)ethyl]urea] | > 6.30 | > 7.00
CC(Oc1cc2sc(NC(=O)NCCN3CCOCC3)nc2cc1F)c1c(F)ccc(Cl)c1Cl (centres unmarked) [Example 111, 1-{6-[1-(2,3-dichloro-6-fluorophenyl)ethoxy]-5-fluoro-1,3-benzothiazol-2-yl}-3-[2-(morpholin-4-yl)ethyl]urea] | 5.00 to 6.30 | > 7.00
CC(Oc1cc2sc(NC(=O)NCCCN3CCCC3=O)nc2cc1F)c1c(F)ccc(Cl)c1Cl (centres unmarked) [Example 114, 1-{6-[1-(2,3-dichloro-6-fluorophenyl)ethoxy]-5-fluoro-1,3-benzothiazol-2-yl}-3-[3-(2-oxopyrrolidin-1-yl)propyl]urea] | > 6.30 | > 7.00
CC(Oc1cc2sc(NC(=O)NCCN3CCCC3)nc2cc1F)c1c(F)ccc(Cl)c1Cl (centres unmarked) [Example 118, 1-{6-[1-(2,3-dichloro-6-fluorophenyl)ethoxy]-5-fluoro-1,3-benzothiazol-2-yl}-3-[2-(pyrrolidin-1-yl)ethyl]urea] | > 6.30 | > 7.00
CC(Oc1ccc2nc(NC(=O)NCCN3CCCC3)sc2c1)c1c(F)ccc(Cl)c1Cl (centres unmarked) [Example 120, 1-{6-[1-(2,3-dichloro-6-fluorophenyl)ethoxy]-1,3-benzothiazol-2-yl}-3-[2-(pyrrolidin-1-yl)ethyl]urea] | > 6.30 | > 7.00
Cc1ccc(F)c(C(C)Oc2ccc3nc(NC(=O)NCCN4CCOCC4)sc3c2)c1F (centres unmarked) [Example 123, 1-{6-[1-(2,6-difluoro-3-methylphenyl)ethoxy]-1,3-benzothiazol-2-yl}-3-[2-(morpholin-4-yl)ethyl]urea] | 5.00 to 6.30 | > 7.00
CC(Oc1ccc2nc(NC(=O)NCCN3CCOCC3)sc2c1)c1c(Cl)ccc(Cl)c1Cl (centres unmarked) [Example 124, 1-[2-(morpholin-4-yl)ethyl]-3-{6-[1-(2,3,6-trichlorophenyl)ethoxy]-1,3-benzothiazol-2-yl}urea] | 5.00 to 6.30 | > 7.00
CC(Oc1cc2sc(NC(=O)NCCN3CCCC3)nc2cc1F)c1c(Cl)ccc(Cl)c1Cl (centres unmarked) [Example 126, 1-{5-fluoro-6-[1-(2,3,6-trichlorophenyl)ethoxy]-1,3-benzothiazol-2-yl}-3-[2-(pyrrolidin-1-yl)ethyl]urea] | 5.00 to 6.30 | > 7.00
CNCCCNC(=O)Nc1nc2cc(F)c(OC(C)c3c(Cl)ccc(F)c3Cl)cc2s1 (centres unmarked) [Example 127, 1-{6-[1-(2,6-dichloro-3-fluorophenyl)ethoxy]-5-fluoro-1,3-benzothiazol-2-yl}-3-[3-(methylamino)propyl]urea] | 5.00 to 6.30 | > 7.00

The next lines start with the values.

pIC50 (RON) | pIC50 (c-MET) | Compound
5.00 to 6.30 | > 7.00 | CC(Oc1ccc2nc(NC(=O)NCc3ccncc3)sc2c1)c1c(Cl)ccc(F)c1Cl (centres unmarked) [Example 57, 1-{6-[1-(2,6-dichloro-3-fluorophenyl)ethoxy]-1,3-benzothiazol-2-yl}-3-(pyridin-4-ylmethyl)urea]
5.00 to 6.30 | > 7.00 | CC(Oc1ccc2nc(NC(=O)NCc3ccccn3)sc2c1)c1c(Cl)ccc(F)c1Cl (centres unmarked) [Example 58, 1-{6-[1-(2,6-dichloro-3-fluorophenyl)ethoxy]-1,3-benzothiazol-2-yl}-3-(pyridin-2-ylmethyl)urea]
5.00 to 6.30 | > 7.00 | CC(Oc1ccc2nc(NC(=O)CCCN3CCOCC3)sc2c1)c1c(Cl)ccc(F)c1Cl (centres unmarked) [Example 65, N-{6-[1-(2,6-dichloro-3-fluorophenyl)ethoxy]-1,3-benzothiazol-2-yl}-4-(morpholin-4-yl)butanamide]
5.00 to 6.30 | > 7.00 | CC(Oc1cc2sc(NC(=O)CCCN3CCCC3)nc2cc1F)c1c(Cl)ccc(F)c1Cl (centres unmarked) [Example 68, N-{6-[1-(2,6-dichloro-3-fluorophenyl)ethoxy]-5-fluoro-1,3-benzothiazol-2-yl}-4-(pyrrolidin-1-yl)butanamide]
5.00 to 6.30 | > 7.00 | CC(Oc1cc2sc(NC(=O)CN3CCNCC3)nc2cc1F)c1c(Cl)ccc(F)c1Cl (centres unmarked) [Example 69, N-{6-[1-(2,6-dichloro-3-fluorophenyl)ethoxy]-5-fluoro-1,3-benzothiazol-2-yl}-2-(piperazin-1-yl)acetamide]
> 6.30 | > 7.00 | CCN1CCN(CCNC(=O)Nc2nc3cc(F)c(OC(C)c4c(Cl)ccc(F)c4Cl)cc3s2)CC1 (centres unmarked) [Example 100, 1-{6-[1-(2,6-dichloro-3-fluorophenyl)ethoxy]-5-fluoro-1,3-benzothiazol-2-yl}-3-[2-(4-ethylpiperazin-1-yl)ethyl]urea]
5.00 to 6.30 | > 7.00 | CC(Oc1cc2sc(NC(=O)NCCOCC3CC3)nc2cc1F)c1c(Cl)ccc(F)c1Cl (centres unmarked) [Example 103, 1-[2-(cyclopropylmethoxy)ethyl]-3-{6-[1-(2,6-dichloro-3-fluorophenyl)ethoxy]-5-fluoro-1,3-benzothiazol-2-yl}urea]
5.00 to 6.30 | > 7.00 | CC(Oc1cc2sc(NC(=O)NCCN3CCOCC3)nc2cc1Cl)c1c(Cl)ccc(F)c1Cl (centres unmarked) [Example 106, 1-{5-chloro-6-[1-(2,6-dichloro-3-fluorophenyl)ethoxy]-1,3-benzothiazol-2-yl}-3-[2-(morpholin-4-yl)ethyl]urea]
> 6.30 | > 7.00 | CC(Oc1cc2sc(NC(=O)NCCN3CCN(C)CC3)nc2cc1F)c1c(F)ccc(Cl)c1Cl (centres unmarked) [Example 115, 1-{6-[1-(2,3-dichloro-6-fluorophenyl)ethoxy]-5-fluoro-1,3-benzothiazol-2-yl}-3-[2-(4-methylpiperazin-1-yl)ethyl]urea]
5.00 to 6.30 | > 7.00 | CC(Oc1ccc2nc(NC(=O)NCCN3CCCC3)sc2c1)c1c(Cl)ccc(Cl)c1Cl (centres unmarked) [Example 125, 1-[2-(pyrrolidin-1-yl)ethyl]-3-{6-[1-(2,3,6-trichlorophenyl)ethoxy]-1,3-benzothiazol-2-yl}urea]
5.00 to 6.30 | > 7.00 | CC(Oc1cc2sc(NC(=O)NCCCN)nc2cc1F)c1c(Cl)ccc(F)c1Cl (centres unmarked) [Example 128, 1-(3-aminopropyl)-3-{6-[1-(2,6-dichloro-3-fluorophenyl)ethoxy]-5-fluoro-1,3-benzothiazol-2-yl}urea]
5.00 to 6.30 | > 7.00 | CC(Oc1cc2sc(NC(=O)NCC(=O)N3CCN(C)CC3)nc2cc1F)c1c(Cl)ccc(F)c1Cl (centres unmarked) [Example 129, 1-{6-[1-(2,6-dichloro-3-fluorophenyl)ethoxy]-5-fluoro-1,3-benzothiazol-2-yl}-3-[2-(4-methylpiperazin-1-yl)-2-oxoethyl]urea]
